Measured values as given in US20130216590A1, “TOPICAL ANTIVIRAL FORMULATIONS FOR PREVENTION OF TRANSMISSION OF HSV-2” (priority 2010, published 2013).
Values after ≈ are worked out from the molar mass of the structure shown. Like-named read-outs stand apart in the source and are kept apart here.

What was measured:
HSV-1 and HSV-2 = assay: HSV cytopathic effect (CPE) reduction assay, laboratory strains, HEL cell monolayers and PHKs; format: cell-based, herpes simplex virus; details: HEL, read-out: EC50, inhibition of virus-induced cytopathicity
[1] = system: HSV-2 wt clinical isolates; assay: HSV CPE reduction assay, clinical isolates in HEL fibroblast cell cultures; format: cell-based; details: Human alphaherpesvirus 2, Fibroblast
[2] = system: thymidine kinase-deficient HSV-2 clinical isolates; assay: microbe, parasite or virus in culture; format: cell-based; details: Human alphaherpesvirus 2, Fibroblast
HSV-2 = assay: Herpes virus infection of primary monocyte/macrophage (M/M) cell cultures; format: cell-based
Protocol: Human peripheral blood mononuclear cells (PBMCs) were obtained from the blood of healthy seronegative donors by Ficoll-Hypaque density gradient centrifugation. […] Monocyte/macrophage (M/M) cells were separated by adherence onto plastic. […] African green monkey fibroblastoid kidney (Vero) cells highly sensitive to the cytopathic effect of HSV-2 were grown in RPMI medium supplemented with 10% heat inactivated FCS and were used in infectious virus titration assays.
Macrophage cultures were then infected with HSV-2 (100 CCID50) in the presence of the test compounds. After 2 hrs virus adsorption, the cultures were extensively washed to remove any residual virus particles. Fresh culture medium and compounds, at the indicated concentrations, were then added to the cultures. […] Appropriate positive (infected but not treated M/M) and mock-infected negative (uninfected and untreated M/M) controls were run for each experiment as well. All assays were performed in triplicate. […] Therefore, the potential inhibitory effect of the compounds on the replication of HSV-2 was evaluated 6 days after infection. The amount of infectious virus in the supernatants was determined by a classical limited dilution assay on Vero cell cultures. The titers of produced virus were calculated according to the Reed and Muench method and expressed as 50% tissue culture infective dose per ml (TCID50/ml).
The inhibition capacity was expressed in % and calculated considering as value 100 being the virus production in virus-infected untreated cultures.

HSV-2G = assay: Human ex vivo tonsillar tissue coinfected with HSV-2G and HIV-1: HSV-2G DNA release; format: cell-based; details: 66 μg/ml, coinfected with HIV-1
Protocol: For each experimental condition 16 tissue blocks were immersed in 500 μl of a HSV-2 (strain G) suspension for 2 hours at 37° C., washed three times with PBS and then placed on the gelfoam rafts. Tenofovir was added during the infection and replenished at each culture medium change. Herpes simplex viral replication was evaluated by the release of viral DNA into the culture medium as measured by quantitative real-time PCR (17). HIV-1 replication was evaluated by the release of p24 capsid antigen using a bead-based assay (18).

With C[C@H](Cn1cnc2c(N)ncnc21)OCP(=O)(O)O [tenofovir, (R)-9-(2-phosphonylmethoxypropyl)adenine] as the compound, how does the EC50 (HSV-1 and HSV-2) read?
The EC50 was 100 to 200 µg/mL (≈ 348 to 696 µM).

What about the EC50 ([1]; read-out: mean EC50) of the same compound?
Its EC50 is ≥ 157 µg/mL.

And the EC50 ([1]; read-out: range of EC50)?
Its EC50 is ≥ 125 µg/mL.

And the EC50 ([2]; read-out: mean EC50)?
Its EC50 is 152 µg/mL (≈ 529 µM).

What about the EC50 ([2]; read-out: range of EC50) of the same compound?
The EC50 was 131 to 179 µg/mL (≈ 456 to 623 µM).

And the CPE (HSV-2; 1 μg/ml or 0.2 μg/ml, day 6)?
Its CPE is 70-80%.

And the “virus titer in supernatants” value (HSV-2; 1 μg/ml or 0.2 μg/ml, day 6)?
The value was 2.5×10^5 TCID50/ml.

What about the “visible CPE” value (HSV-2; 5 μg/ml, day 6) of the same compound?
The value was 30%.

And the “visible CPE” value (HSV-2; 20 μg/ml, day 6)?
The value was ~5%.

And the “virus titers in the culture supernatants versus untreated controls” value (HSV-2; 20 and 5 μg/ml, day 6)?
The value was “more than one log lower”.

What about the virus replication (HSV-2; 500 and 100 μg/ml, day 6 post virus infection) of the same compound?
Its virus replication is “completely suppressed virus replication”.

What about the “HSV-2G DNA release into culture medium” value (HSV-2G; IQR 4.3-5.7, untreated 7.3) of the same compound?
Its value is 5 log10 copies/ml.

And the “suppression of HSV-2G replication” value (HSV-2G; n=6)?
The value was 96±1%.
